Laboratory results from patent publication US20240415819A1, “MACROCYCLIC COMPOUNDS AS PROTEASOME SUBUNIT BETA TYPE-5 INHIBITORS” (Lead Discovery Center GmbH, priority 2021, published 2024).
Read-outs that look alike come from different tables or passages of the source.

What was measured:
[1] = tested on: HT-29 cells; assay: CellTiter-Glo luminescent cell viability assay with HT-29 cells (72h incubation); format: cell-based, human; details: Homo sapiens, HT-29, HT29 cells, read-out: CTG HT29
How it was run: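 400 cells per well in DMEM/10% FCS were dosed after 24 h and kept 72 h at 37 °C, 5% CO2. ATP-based luminescence (CellTiter-Glo) normalized to DMSO and 10 μM staurosporine controls; IC50 by dose-response fit.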

[2] = tested on: A549 (human lung carcinoma cell line); assay: Glo assay of A549 cells (Table 3; ProteasomeGlo plating scheme); format: cell-based; details: Homo sapiens
How it was run: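 After acoustic compound transfer, plates incubate 105 min (37° C., 5% CO2). Proteasome-Glo reagent containing Suc-LLVY-Glo substrate is added, plates are shaken, then luminescence is measured after 10-15 min to derive IC50 [nM]. Staurosporine and DMSO serve as controls.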

[3] = molecular target: T1, β5 subunit of the human constitutive proteasome (CPS) (Homo sapiens, UniProt P28074); assay: β5 inhibition assay, human constitutive proteasome (Suc-LLVY-AMC); format: biochemical; details: IC50 class, Suc-LLVY-AMC substrate
T1 construct: purchased Boston Biochem E-360
Method: The enzymatic activity of the β5 subunit of the human constitutive proteasome (CPS) is analyzed. In another assay, which differs from the assay of the human constitutive proteasome only in using the human immunoproteasome (IPS) the enzymatic activity of the β5 subunit of the human immunoproteasome (IPS) is analyzed. […] Inhibition is indicated as IC50 [nM] (“-”=not measured).

[4] = A549 cells, read-out: PGLo A549

| IC50 [1] | IC50 [2, 4] | IC50 [3] | SMILES | IC50 ([2]; A549, read-out: PGLo A549 [nM]) |
| --- | --- | --- | --- | --- |
| 100 to 500 nM | 500 to 1000 nM | < 100 nM | Cc1ccc2cc1CNC(=O)[C@H](CCc1ccccc1)NC(=O)[C@@H](N)CC(=O)N1CCCC(CCO2)C1 (stereo partly drawn) [Compound 8, (9S,12S)-12-amino-5^4-methyl-9-phenethyl-4-oxa-7,10-diaza-1(3,1)-piperidina-5(1,3)-benzenacyclotetradecaphane-8,11,14-trione] |  |
| 100 to 500 nM | 100 to 500 nM | < 100 nM | CNCCOCC(=O)N[C@H]1CC(=O)N2CCCC(CCOc3ccc(C)c(c3)CNC(=O)[C@H](CCc3ccccc3)NC1=O)C2 (stereo partly drawn) [Compound 130, N-((9S,12S)-5^4-methyl-8,11,14-trioxo-9-phenethyl-4-oxa-7,10-diaza-1(3,1)-piperidina-5(1,3)-benzenacyclotetradecaphane-12-yl)-2-(2-(methylamino)ethoxy)acetamide] |  |
| < 100 nM | < 100 nM | < 100 nM | C=CC(=O)N[C@H]1CC(=O)N2CCCC(CCOc3ccc(C)c(c3)CNC(=O)[C@H](CCc3ccccc3)NC1=O)C2 (stereo partly drawn) [Compound 181, N-((9S,12S)-5^4-methyl-8,11,14-trioxo-9-phenethyl-4-oxa-7,10-diaza-1(3,1)-piperidina-5(1,3)-benzenacyclotetradecaphane-12-yl)acrylamide] |  |
| < 100 nM | 100 to 500 nM | < 100 nM | Cc1ccc2cc1CNC(=O)[C@H](CCc1ccccc1)NC(=O)[C@@H](NC(=O)C1(N)CCOC1)CC(=O)N1CCCC(CCO2)C1 (stereo partly drawn) [Compound 159, 3-amino-N-((9S,12S)-5^4-methyl-8,11,14-trioxo-9-phenethyl-4-oxa-7,10-diaza-1(3,1)-piperidina-5(1,3)-benzenacyclotetradecaphane-12-yl)tetrahydrofuran-3-carboxamide] |  |
| 100 to 500 nM | 500 to 1000 nM | 100 to 500 nM | Cc1ccc2cc1CNC(=O)[C@@H](CCc1ccccc1)NC(=O)[C@@H](NC(=O)OCc1ccccc1)CC(=O)N1CCC[C@H](CCO2)C1 [Compound 289, benzyl ((13R,9R,12S)-5^4-methyl-8,11,14-trioxo-9-phenethyl-4-oxa-7,10-diaza-1(3,1)-piperidina-5(1,3)-benzenacyclotetradecaphane-12-yl)carbamate] |  |
| < 100 nM | < 100 nM | < 100 nM | Cc1ccc2cc1CNC(=O)[C@H](CCc1ccccc1)NC(=O)[C@@H](NC(=O)CN1CCCC1)CC(=O)N1CCCC(CCO2)C1 (stereo partly drawn) [Compound 89, N-((9S,12S)-5^4-methyl-8,11,14-trioxo-9-phenethyl-4-oxa-7,10-diaza-1(3,1)-piperidina-5(1,3)-benzenacyclotetradecaphane-12-yl)-2-(pyrrolidin-1-yl)acetamide] |  |
| < 100 nM | < 100 nM | < 100 nM | COCCOCCOCCOCCOCCC(=O)N[C@H]1CC(=O)N2CCCC(CCOc3ccc(C)c(c3)CNC(=O)[C@H](CCc3ccccc3)NC1=O)C2 (stereo partly drawn) [Compound 219, N-((9S,12S)-5^4-methyl-8,11,14-trioxo-9-phenethyl-4-oxa-7,10-diaza-1(3,1)-piperidina-5(1,3)-benzenacyclotetradecaphane-12-yl)-2,5,8,11,14-pentaoxaheptadecan-17-amide] |  |
| < 100 nM | < 100 nM | < 100 nM | Cc1ccc2cc1CNC(=O)[C@H](CCc1ccccc1)NC(=O)[C@@H](NC(=O)[C@@H](N)Cc1ccccc1)CC(=O)N1CCCC(CCO2)C1 (stereo partly drawn) [Compound 179, (2R)-2-amino-N-((9S,12S)-5^4-methyl-8,11,14-trioxo-9-phenethyl-4-oxa-7,10-diaza-1(3,1)-piperidina-5(1,3)-benzenacyclotetradecaphane-12-yl)-3-phenylpropanamide-] |  |
| < 100 nM | < 100 nM | < 100 nM | Cc1ccc2cc1CNC(=O)[C@H](CCc1ccccc1)NC(=O)[C@@H](NC(=O)C1(N)COC1)CC(=O)N1CCCC(CCO2)C1 (stereo partly drawn) [Compound 158, 3-amino-N-((9S,12S)-5^4-methyl-8,11,14-trioxo-9-phenethyl-4-oxa-7,10-diaza-1(3,1)-piperidina-5(1,3)-benzenacyclotetradecaphane-12-yl)oxetane-3-carboxamide] |  |

More lines, now with the values behind:

| SMILES | IC50 [1] | IC50 [2, 4] | IC50 [3] | IC50 ([2]; A549, read-out: PGLo A549 [nM]) |
| --- | --- | --- | --- | --- |
| Cc1ccc2cc1CNC(=O)[C@H](CCc1ccccc1)NC(=O)[C@@H](NS(=O)(=O)CCc1ccccc1)CC(=O)N1CCCC(CCO2)C1 (stereo partly drawn) [Compound 217, N-((9S,12S)-5^4-methyl-8,11,14-trioxo-9-phenethyl-4-oxa-7,10-diaza-1(3,1)-piperidina-5(1,3)-benzenacyclotetradecaphane-12-yl)-2-phenylethane-1-sulfonamide] | < 100 nM | < 100 nM | < 100 nM |  |
| Cc1ccc2cc1CNC(=O)[C@H](CCc1ccccc1)NC(=O)[C@@H](NC(=O)CN1CCNCC1)CC(=O)N1CCCC(CCO2)C1 (stereo partly drawn) [Compound 126, N-((9S,12S)-5^4-methyl-8,11,14-trioxo-9-phenethyl-4-oxa-7,10-diaza-1(3,1)-piperidina-5(1,3)-benzenacyclotetradecaphane-12-yl)-2-(piperazin-1-yl)acetamide] | 100 to 500 nM | < 100 nM | < 100 nM |  |
| CCOC(=O)N[C@H]1CC(=O)N2CCCC(CCOc3ccc(C)c(c3)CNC(=O)[C@H](CCc3ccccc3)NC1=O)C2 (stereo partly drawn) [Compound 39, ethyl ((9S,12S)-5^4-methyl-8,11,14-trioxo-9-phenethyl-4-oxa-7,10-diaza-1(3,1)-piperidina-5(1,3)-benzenacyclotetradecaphane-12-yl)carbamate] | < 100 nM |  | < 100 nM | < 100 nM |
| Cc1ccc2cc1CNC(=O)[C@H](CCc1ccccc1)NC(=O)[C@@H](NC(=O)CCc1ccc(Br)cc1)CC(=O)N1CCCC(CCO2)C1 (stereo partly drawn) [Compound 175, 3-(4-bromophenyl)-N-((9S,12S)-5^4-methyl-8,11,14-trioxo-9-phenethyl-4-oxa-7,10-diaza-1(3,1)-piperidina-5(1,3)-benzenacyclotetradecaphane-12-yl)propanamide] | < 100 nM | < 100 nM | < 100 nM |  |
| Cc1ccc2cc1CNC(=O)[C@H](CCc1ccccc1)NC(=O)[C@@H](NC(=O)c1n[nH]c3ccccc13)CC(=O)N1CCCC(CCO2)C1 (stereo partly drawn) [Compound 60, N-((9S,12S)-5^4-methyl-8,11,14-trioxo-9-phenethyl-4-oxa-7,10-diaza-1(3,1)-piperidina-5(1,3)-benzenacyclotetradecaphane-12-yl)-1H-indazole-3-carboxamide] | < 100 nM | 100 to 500 nM | < 100 nM |  |
| Cc1nc2cc(CCC(=O)N[C@H]3CC(=O)N4CCCC(CCOc5ccc(C)c(c5)CNC(=O)[C@H](CCc5ccccc5)NC3=O)C4)ccc2[nH]1 (stereo partly drawn) [Compound 174, 3-(2-methyl-1H-benzo[d]imidazol-6-yl)-N-((9S,12S)-5^4-methyl-8,11,14-trioxo-9-phenethyl-4-oxa-7,10-diaza-1(3,1)-piperidina-5(1,3)-benzenacyclotetradecaphane-12-yl)propanamide] | < 100 nM | < 100 nM | < 100 nM |  |
| Cc1ccc2cc1CNC(=O)[C@H](CCc1ccccc1)NC(=O)[C@@H](NC(=O)C(C)(C)CO)CC(=O)N1CCCC(CCO2)C1 (stereo partly drawn) [Compound 284, 3-hydroxy-2,2-dimethyl-N-((9S,12S)-5^4-methyl-8,11,14-trioxo-9-phenethyl-4-oxa-7,10-diaza-1(3,1)-piperidina-5(1,3)-benzenacyclotetradecaphane-12-yl)propanamide] | < 100 nM | 100 to 500 nM | < 100 nM |  |
